The source of these data is paper PMC3104491 (mBio, 2011).

Data set [1] deals with T1, CTL843 (SAMHT, SAM/SAH transporter) (Chlamydia trachomatis, UniProt B0B8F4).
T1 sequence (B0B8F4 1-327): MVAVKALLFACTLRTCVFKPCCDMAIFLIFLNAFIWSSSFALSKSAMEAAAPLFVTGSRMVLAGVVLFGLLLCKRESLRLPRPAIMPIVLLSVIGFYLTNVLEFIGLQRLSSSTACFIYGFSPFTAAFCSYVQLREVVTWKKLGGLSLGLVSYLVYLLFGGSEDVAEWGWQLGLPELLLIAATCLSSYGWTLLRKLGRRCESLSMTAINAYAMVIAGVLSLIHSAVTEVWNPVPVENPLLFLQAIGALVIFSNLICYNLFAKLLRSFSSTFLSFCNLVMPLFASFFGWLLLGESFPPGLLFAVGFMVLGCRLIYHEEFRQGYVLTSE
Nature of the data set: inhibition of […]SAM uptake in whole E. coli cells expressing CTL843. The data set is classed as cell-based.

Substrate in data set [2]: C[S@@+](CC[C@H](N)C(=O)O)C[C@H]1O[C@@H](n2cnc3c(N)ncnc32)[C@H](O)[C@@H]1O
Nature of the data set: cells, lysate or membranes.

Usually Ki stands for the dissociation constant of the complex between target and ligand, obtained from inhibition or displacement. Lower therefore signals higher affinity. For `Nc1ncnc2c1ncn2[C@@H]1O[C@H](CSCC[C@H](N)C(=O)O)[C@@H](O)[C@H]1O` [SAH, S-Adenosyl-L-homocysteine], the affinity in data set [1], expressed as Ki, was 4.12 µM.

B1: CTL843 (SAMHT, SAM/SAH transporter) (Chlamydia trachomatis L2/434/Bu) (protein)
chain: MVAVKALLFACTLRTCVFKPCCDMAIFLIFLNAFIWSSSFALSKSAMEAAAPLFVTGSRMVLAGVVLFGLLLCKRESLRLPRPAIMPIVLLSVIGFYLTNVLEFIGLQRLSSSTACFIYGFSPFTAAFCSYVQLREVVTWKKLGGLSLGLVSYLVYLLFGGSEDVAEWGWQLGLPELLLIAATCLSSYGWTLLRKLGRRCESLSMTAINAYAMVIAGVLSLIHSAVTEVWNPVPVENPLLFLQAIGALVIFSNLICYNLFAKLLRSFSSTFLSFCNLVMPLFASFFGWLLLGESFPPGLLFAVGFMVLGCRLIYHEEFRQGYVLTSE
By Km is commonly meant the concentration of substrate that gives half-maximal velocity. B1: the Km in data set [2] is on record as 5.88 ± 0.11 µM.
